From ChEMBL document CHEMBL2074189, “Functional expression cloning and characterization of the hepatocyte Na+/bile acid cotransport system” (Proc Natl Acad Sci U S A, 1991)

What was measured:
Assay type in all cases: functional, cell-based
Details in all cases: oocyte
[1] = target: T1, Hepatic sodium/bile acid cotransporter (Rattus norvegicus, UniProt P26435); experiment: TP_TRANSPORTER: inhibition of Taurocholate uptake (Taurochorate: 17 uM, Bumetanide: 500 uM) in Xenopus laevis oocytes
T1 sequence (P26435 whole entry): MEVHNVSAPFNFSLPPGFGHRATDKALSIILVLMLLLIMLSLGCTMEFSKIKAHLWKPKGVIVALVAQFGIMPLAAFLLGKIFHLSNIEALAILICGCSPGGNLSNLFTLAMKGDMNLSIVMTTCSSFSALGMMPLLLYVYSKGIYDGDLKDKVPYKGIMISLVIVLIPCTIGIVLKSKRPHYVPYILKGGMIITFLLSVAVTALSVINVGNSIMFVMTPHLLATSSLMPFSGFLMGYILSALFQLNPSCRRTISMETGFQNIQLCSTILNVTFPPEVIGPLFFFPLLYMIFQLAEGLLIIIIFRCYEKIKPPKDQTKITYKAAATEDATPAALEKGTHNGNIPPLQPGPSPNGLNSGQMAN

[2] = target: T1, Hepatic sodium/bile acid cotransporter; experiment: TP_TRANSPORTER: inhibition of Taurocholate uptake (Taurochorate: 17 uM, Probenecid: 1000 uM) in Xenopus laevis oocytes
[3] = target: T1, Hepatic sodium/bile acid cotransporter; experiment: TP_TRANSPORTER: inhibition of Taurocholate uptake (Taurochorate: 17 uM, BSP: 100 uM) in Xenopus laevis oocytes
[4] = target: T1, Hepatic sodium/bile acid cotransporter; experiment: TP_TRANSPORTER: inhibition of Taurocholate uptake (Taurochorate: 17 uM, TCDC: 100 uM) in Xenopus laevis oocytes

CCCCNc1cc(C(=O)O)cc(S(N)(=O)=O)c1Oc1ccccc1 [BUMETANIDE]
Activity [1]: inhibitor [(at a rough estimate) 50 % of control]

CCCN(CCC)S(=O)(=O)c1ccc(C(=O)O)cc1 [PROBENECID]
Activity [2]: inhibitor [(at a rough estimate) 70 % of control]

O=C1OC(c2ccc(O)c(S(=O)(=O)[O-])c2)(c2ccc(O)c(S(=O)(=O)[O-])c2)c2c(Br)c(Br)c(Br)c(Br)c21.[Na+].[Na+] [SULFOBROMOPHTHALEIN SODIUM]
Activity [3]: inhibitor [(at a rough estimate) 25 % of control]

C[C@H](CCC(=O)NCCS(=O)(=O)O)[C@H]1CC[C@H]2[C@@H]3[C@H](O)C[C@@H]4C[C@H](O)CC[C@]4(C)[C@H]3CC[C@]12C [TAUROCHENODEOXYCHOLATE]
Activity [4]: inhibitor [(at a rough estimate) 15 % of control]
